Results as given in patent US12478628B2, “Germ cell nuclear factor ligands and methods of use thereof” (Saint Louis University, priority 2020, dated 2025).
Numbering of substitutions follows the chain as printed.

Legend:
[1] = system: BeWo human choriocarcinoma cells; assay: qPCR of GCNF target gene expression in BeWo cells; assay type: cell-based; settings: 20 μM, 24 h
Protocol: BeWo cells were cultured in DMEM-F12 medium (Gibco) with 10% FBS (Gembio) and plated at 75,000 cells per well in 12-well plates (Corning). 24-hours after plating, cells were treated with either DMSO, ligand 34 or ligand 80 (20 μM) at 4 wells/group. RNA was isolated 24-hours after drug treatment and cDNA was synthesized for the QPCR assays using Bio-Rad iScript cDNA synthesis kit per manufacturer's protocol. Expression was analyzed by QPCR using a custom array plate (Bio-Rad PrimePCR) per manufacturer's protocol; n=4 was used for cell-based assays and plotted as mean±SEM.

GCNF LBD F284A = target: T1, GCNF LBD F284A (Homo sapiens, UniProt Q15406, F284A); assay: DSF of GCNF LBD mutant F284A; assay type: binding; settings: 20 μM ligand
T1 construct: Human GCNF (NR6A1) LBD (residues 248-480) and mutants F284A/F361A; hexahistidine tag with 3C protease site; made in house; host or cells: E. coli BL(21) DE3
T1 sequence (Q15406 248-480 F284A): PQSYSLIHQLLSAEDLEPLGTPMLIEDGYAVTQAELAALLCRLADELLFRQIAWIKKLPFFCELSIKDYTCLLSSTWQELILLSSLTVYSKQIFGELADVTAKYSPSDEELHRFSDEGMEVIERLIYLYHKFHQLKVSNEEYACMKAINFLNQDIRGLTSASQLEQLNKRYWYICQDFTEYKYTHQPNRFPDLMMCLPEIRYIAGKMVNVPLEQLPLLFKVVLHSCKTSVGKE
Protocol: Protein Expression and Purification. Human GCNF (NR6A1) LBD (residues 248-480) and mutants F284A/F361A, human LRH-1 (NR5A2) LBD (residues 291-541), human RXRα LBD (residues 223-462), human COUP-TF I LBD (residues 184-410) and human SF-1 LBD (residues 219-461) were subcloned in pET45b(+) plasmid (Novagen) were expressed in E. coli BL(21) DE3 cells in terrific broth with 0.1 mg/mL ampicillin as 3C protease-cleavable hexahistidine-tagged fusion proteins. The bacterial culture was grown at 37° C. to an optical density of 0.8 to 1.0 at 600 nm. Protein expression was induced by adding 1 mM IPTG and was allowed to proceed for 14 h at 22° C. […]
DSF Assay. […] A total of 450 compounds (Life Chemicals) previously selected from a nuclear-receptor-biased library targeting REV-ERB were analyzed. Thermal stability was assessed on a Quantstudio 6 instrument (Biosystems) by ramping the temperature from 25° C. to 95° C. at 0.05° C./s and protein melt shifts were subsequently quantified by Boltzmann-derived melting temperature (Tm) using the Protein Thermal Shift (ThermoFisher) software. […]

GCNF LBD = target: T2, GCNF LBD (Homo sapiens, UniProt Q15406); assay: Solution 1H NMR methyl peak perturbation of GCNF LBD; assay type: binding; settings: 1.05:1 molar equivalence of ligand; seven shielded resonances monitored
T2 construct: Human GCNF (NR6A1) LBD (residues 248-480); made in house; host or cells: E. coli BL(21) DE3
T2 sequence (Q15406 248-480): T1 sequence (Q15406 248-480 F284A) with A37F
Protocol: Solution NMR spectroscopy. One hundred micromolar (100 μM) of GCNF LBD with 10% D2O were mixed with either 0.5% DMSO-d6 or 1.05:1 molar equivalence of ligand and transferred to a Shigemi tube. ^1H NMR data were acquired at 298 K on a 700 MHz Bruker Avance II HDTM NMR instrument equipped with a QCI cryoprobe. For each spectrum, 1024 transients were collected into 32,000 data points, with a spectral width of 16.7 kHz. Data were analyzed using Topspin 3.5 pl 7.

[2] = target: T3, GCNF LBD with NCoR ID1 corepressor peptide (Homo sapiens, UniProt Q15406); assay: FP ligand titration assay, NCoR ID1 peptide recruitment; assay type: biochemical; settings: 20 μM GCNF LBD
T3 construct: Human GCNF (NR6A1) LBD (residues 248-480); made in house; host or cells: E. coli BL(21) DE3
T3 sequence (Q15406 248-480): T1 sequence (Q15406 248-480 F284A) with A37F
Protocol: (§1) FP Assay. Fluorescence polarization (FP) assays were performed in triplicate on a 384-well Corning 3820 black opaque plate using a Biotek Synergy Neo2 HTS multimode microplate reader at excitation and emission wavelengths of 485 nm and 538 nm, respectively. Data were analyzed and plotted using GraphPad Prism as mean±SEM.
(§2) For the FP ligand titration assay, the aforementioned N-terminus fluorescein-tagged corepressor peptides were diluted to 500 nM from a 100 μM DMSO stock in the presence of 20 μM GCNF LBD and ligand concentration points 30, 20, 13, 9, 6, 4, 2.6, 1.7 and 0 μM in assay buffer containing 50 mM HEPES (pH 7.5), 50 mM KCl, 5 mM TCEP, 0.5 mM EDTA and 0.005% Tween20. The relative polarization was plotted against log of ligand concentration (μM) and the half maximal effective concentration (EC50) values were derived via sigmoidal fit.

[3] = system: GCNF single point mutations F284A, Y336F and F361A with SMRT ID2 peptide; assay: FP SMRT ID2 recruitment with GCNF point mutants; assay type: biochemical, human; settings: Y336F and F361A vs wild-type
Protocol: as §1, §2

Row | Structure (SMILES) | GCNF gene expression [1] | NR5A1 (SF-1) expression [1] | NR5A2 (LRH-1) expression [1] | Nanog expression [1] | Oct4 expression [1] | carnitine palmitoyltransferase 1a (CPT1a) expression [1] | diglyceride acyltransferase-1 (DGAT1) expression [1] | diglyceride acyltransferase-2 (DGAT2) expression [1] | fatty acid synthase (FASN) expression [1] | phosphoenolpyruvate carboxykinase (PEPCK) expression [1] | effect of mutation F284A on ΔTm compared to WT (GCNF LBD F284A) | shielded methyl 1H NMR resonances of GCNF LBD perturbed (GCNF LBD) | effect on recruitment of NCoR ID1 to GCNF [2] | SMRT-ID2 peptide recruitment by GCNF mutants [3]
1 | Cc1ccc(-n2ncc3c(N4CCOCC4)nc(NCc4ccco4)nc32)cc1 [Ligand 34, N-[(furan-2-yl)methyl]-1-(4-methylphenyl)-4-(morpholin-4-yl)-1H-pyrazolo[3,4-d]pyrimidin-6-amine] | not affected | significantly promoted the expression | significantly promoted the expression | significantly promoted the expression | significantly promoted the expression | significantly increased | significantly promoted the expression | no significant effect | no significant effect | upregulated | substantially decreased the ΔTm | 5 of 7 | did not substantially alter | substantially weakened corepressor peptide recruitment
2 | O=C(Cn1cc(S(=O)(=O)c2ccccc2)c2ccccc21)N1CCc2ccccc21 [Ligand 80, 2-[3-(benzenesulfonyl)-1H-indol-1-yl]-1-(2,3-dihydro-1H-indol-1-yl)ethan-1-one] | not affected | but not 80, significantly promoted the expression |  |  | but not 80, significantly promoted the expression | no effect | but not 80, significantly promoted the expression | no significant effect | no significant effect | upregulated | no substantial effect | 5 out of 7 | did not substantially alter | does not affect recruitment
